Data on 20 compounds can be found in US10323022B2, “Pyrrolidinyl urea, pyrrolidinyl thiourea and pyrrolidinyl guanidine compounds as TrkA kinase inhibitors” (Array BioPharma Inc., priority 2011, dated 2019).

For the assay, the target named is TrkA (Homo sapiens (Human), UniProt P04629). Description: TrkA Omnia Assay. The settings on record: averaged IC50; 20 nM enzyme, 500 μM ATP, 10 μM peptide substrate. In kind it is biochemical. The essentials: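 Recombinant TrkA (20 nM) preincubated 10 min at ambient temperature with compound, then Omnia Tyr Peptide #4 (10 μM) and ATP (500 μM) added in 25 mM MOPS pH 7.5, 5 mM MgCl2, 0.005% Triton X-100. Fluorescence (ex 360/em 485 nm) followed continuously for 70 min; IC50 from initial rates by 4- or 5-parameter logistic fit.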

Molecules are shown by their SMILES.

Chain of TrkA (P04629 33-796): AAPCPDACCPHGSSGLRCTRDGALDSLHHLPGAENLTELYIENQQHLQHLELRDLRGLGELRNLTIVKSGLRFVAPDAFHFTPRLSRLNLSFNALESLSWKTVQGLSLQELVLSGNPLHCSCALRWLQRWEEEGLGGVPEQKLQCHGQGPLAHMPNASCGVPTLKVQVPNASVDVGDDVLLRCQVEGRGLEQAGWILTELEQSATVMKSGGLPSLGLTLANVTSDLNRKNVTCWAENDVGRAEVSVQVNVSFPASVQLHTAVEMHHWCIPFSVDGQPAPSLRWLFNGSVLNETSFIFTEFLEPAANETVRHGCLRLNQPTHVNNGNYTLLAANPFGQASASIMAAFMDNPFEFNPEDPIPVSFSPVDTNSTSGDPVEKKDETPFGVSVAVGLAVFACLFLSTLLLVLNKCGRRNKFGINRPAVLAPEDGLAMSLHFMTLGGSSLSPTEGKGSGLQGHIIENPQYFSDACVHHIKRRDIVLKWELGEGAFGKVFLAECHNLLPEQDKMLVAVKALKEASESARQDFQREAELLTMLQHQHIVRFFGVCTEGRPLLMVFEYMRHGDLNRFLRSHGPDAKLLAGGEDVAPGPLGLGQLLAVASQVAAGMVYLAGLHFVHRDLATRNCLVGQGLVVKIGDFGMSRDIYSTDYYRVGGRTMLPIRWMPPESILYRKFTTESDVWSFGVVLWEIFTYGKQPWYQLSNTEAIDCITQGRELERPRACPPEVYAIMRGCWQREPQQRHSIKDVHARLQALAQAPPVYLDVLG

Take `COCCN1C[C@@H](NC(=O)Nc2c(Br)c(C(=O)NOC)nn2-c2ccccc2)[C@H](c2ccc(F)c(F)c2)C1` [Example 555, 4-bromo-5-(3-((3S,4R)-4-(3,4-difluorophenyl)-1-(2-methoxyethyl)pyrrolidin-3-yl)ureido)-N-methoxy-1-phenyl-1H-pyrazole-3-carboxamide]: the half-maximal inhibitory concentration (IC50) was under 0.1 µM. With `CCOc1nn(-c2ccccc2)c(NC(=O)N[C@@H]2CN(c3ccccc3)C[C@H]2c2ccc(F)c(F)c2)c1C` [Example 232, 1-((3S,4R)-4-(3,4-difluorophenyl)-1-phenylpyrrolidin-3-yl)-3-(3-ethoxy-4-methyl-1-phenyl-1H-pyrazol-5-yl)urea] the figure was 0.1 to 1 µM; with `COCCN1C[C@@H](NC(=O)Nc2c(OC)c(C)nn2-c2ccccc2)[C@H](c2ccc(F)c(F)c2)C1` [Example 131, 1-((3S,4R)-4-(3,4-difluorophenyl)-1-(2-methoxyethyl)pyrrolidin-3-yl)-3-(4-methoxy-3-methyl-1-phenyl-1H-pyrazol-5-yl)urea], under 0.1 µM. Next, `COCCN1C[C@@H](NC(=O)Nc2c(C)c(C(=O)O)nn2-c2ccccc2)[C@H](c2ccc(F)c(F)c2)C1` [Example 458, 5-(3-((3S,4R)-4-(3,4-difluorophenyl)-1-(2-methoxyethyl)pyrroidin-3-yl)ureido)-4-methyl-1-phenyl-1H-pyrazole-3-carboxylic acid]: 0.1 to 1 µM; `COCCN1C[C@@H](NC(=S)Nc2c(C)c(-c3cnn(C)c3)nn2-c2ccccc2)[C@H](c2ccc(F)c(F)c2)C1` [Example 632, 1-((3S,4R)-4-(3,4-difluorophenyl)-1-(2-methoxyethyl)pyrrolidin-3-yl)-3-(1′,4-dimethyl-1-phenyl-1H,1′H-3,4′-bipyrazol-5-yl)thiourea]: under 0.1 µM.

`COCCN1C[C@@H](NC(=O)Nc2c(Cl)c(-c3cnn(C)c3)nn2-c2ccccc2)[C@H](c2ccccc2)C1` [Example 425, 1-(4-chloro-1′-methyl-1-phenyl-1H,1′H-[3,4′-bipyrazol]-5-yl)-3-((3S,4R)-4-phenyl-1-(2-methoxyethyl)pyrrolidin-3-yl)urea] returned a concentration for half-maximal inhibition (IC50) of under 0.1 µM. Turning to `COCCN1C[C@@H](NC(=O)Nc2c(C)c(-c3cnn(C)c3)nn2-c2ccccc2)[C@H](c2cc(F)cc(Cl)c2)C1` (relative stereo) [Example 295, 1-(trans-4-(3-chloro-5-fluorophenyl)-1-(2-methoxyethyl)pyrrolidin-3-yl)-3-(1′,4-dimethyl-1-phenyl-1H,1′H-[3,4′-bipyrazol]-5-yl)urea], the IC50 is under 0.1 µM.

Consider `CCOc1nn(-c2ccccc2)c(NC(=O)N[C@@H]2CN(c3ccccc3OC)C[C@H]2c2ccc(F)c(F)c2)c1C` [Example 233, 1-((3S,4R)-4-(3,4-difluorophenyl)-1-(2-methoxyphenyl)pyrrolidin-3-yl)-3-(3-ethoxy-4-methyl-1-phenyl-1H-pyrazol-5-yl)urea], for which the IC50 lay within 0.1 to 1 µM.

The compound `COCCN1C[C@@H](NC(=O)Nc2c(C)c(OCc3ccc(OC)cc3)nn2-c2ccccc2)[C@H](c2ccc(F)c(F)c2)C1` [Example 142, 1-((3S,4R)-4-(3,4-difluoro-phenyl)-1-(2-methoxyethyl)pyrrolidin-3-yl)-3-(3-(4-methoxybenzyloxy)-4-methyl-1-phenyl-1H-pyrazol-5-yl)urea] yielded an IC50 of under 0.1 µM. With `COCCN1C[C@@H](NC(=O)Nc2c(C)c(CCO)nn2-c2ccccc2)[C@H](c2ccc(F)c(F)c2)C1` [Example 133, 1-((3S,4R)-4-(3,4-difluorophenyl)-1-(2-methoxyethyl)pyrrolidin-3-yl)-3-(3-(2-hydroxy-ethyl)-4-methyl-1-phenyl-1H-pyrazol-5-yl)urea] the figure was under 0.1 µM. With `COCCN1C[C@@H](NC(=O)Nc2c(C)c(-c3ccn(C)c(=O)c3)nn2-c2ccccc2)[C@H](c2cccc(F)c2)C1` [Example 531, 1-((3S,4R)-4-(3-fluorophenyl)-1-(2-methoxyethyl)pyrrolidin-3-yl)-3-(4-methyl-3-(1-methyl-2-oxo-1,2-dihydropyridin-4-yl)-1-phenyl-1H-pyrazol-5-yl)urea] the figure was under 0.1 µM. With `COCCN1C[C@@H](NC(=O)Nc2c(Cl)c(CCOC(C)=O)nn2-c2ccccc2)[C@H](c2ccc(F)c(F)c2)C1` [Example 448, 2-(4-chloro-5-(3-((3S,4R)-4-(3,4-difluorophenyl)-1-(2-methoxyethyl)pyrrolidin-3-yl)ureido)-1-phenyl-1H-pyrazol-3-yl)ethyl acetate] the figure was under 0.1 µM; with `COCCN1C[C@@H](NC(=O)Nc2c3c(nn2-c2cccc(F)c2)CCC3)[C@H](c2ccccc2)C1` (relative stereo) [Example 22, 1-(2-(3-fluorophenyl)-2,4,5,6-tetrahydrocyclopenta[c]pyrazol-3-yl)-3-(trans-1-(2-methoxyethyl)-4-phenylpyrrolidin-3-yl)urea], under 0.1 µM.

As to `COCCN1C[C@@H](NC(=O)Nc2c(C)c(-c3cc(C)n(C)n3)nn2-c2ccccc2)[C@H](c2ccc(F)c(F)c2)C1` [Example 305, 1-((3S,4R)-4-(3,4-difluorophenyl)-1-(2-methoxyethyl)pyrrolidin-3-yl)-3-(1′,4,5′-trimethyl-1-phenyl-1H,1′H-[3,3′-bipyrazol]-5-yl)urea], the IC50 is under 0.1 µM. Compound `COCCN1C[C@@H](NC(=O)Nc2c(C)c(C(F)(F)CO)nn2-c2ccccc2)[C@H](c2ccc(F)cc2)C1` [Example 284, 1-(3-(1,1-difluoro-2-hydroxyethyl)-4-methyl-1-phenyl-1H-pyrazol-5-yl)-3-((3S,4R)-4-(4-fluorophenyl)-1-(2-methoxyethyl)pyrrolidin-3-yl)urea] displayed a half-inhibitory concentration (IC50) of under 0.1 µM. With `COCCN1C[C@@H](NC(=O)Nc2c(C)c(OC[C@@H](O)CO)nn2-c2ccccc2)[C@H](c2cc(F)cc(F)c2)C1` [Example 557, 1-((3S,4R)-4-(3,5-difluorophenyl)-1-(2-methoxyethyl)pyrrolidin-3-yl)-3-(3-((S)-2,3-dihydroxvpropoxy)-4-methyl-1-phenyl-1H-pyrazol-5-yl)urea] the figure was under 0.1 µM; with `COCCN1C[C@@H](NC(=O)Nc2c(-c3ccccc3)c(C)nn2C)[C@H](c2ccc(F)c(F)c2)C1` [Example 65, 1-((3S,4R)-4-(3,4-difluorophenyl)-1-(2-methoxyethyl)pyrrolidin-3-yl)-3-(1,3-dimethyl-4-phenyl-1H-pyrazol-5-yl) urea], under 0.1 µM. Next, `COCCN1C[C@@H](NC(=O)Nc2c(C)c(C)nn2-c2ccccc2)[C@H](c2cc(F)cc(F)c2)C1` [Example 83, 1-((3S,4R)-4-(3,5-difluoro-phenyl)-1-(2-methoxyethyl)pyrrolidin-3-yl)-3-(3,4-dimethyl-1-phenyl-1H-pyrazol-5-yl)urea]: under 0.1 µM; `COCCN1C[C@@H](NC(=O)Nc2cc(-c3ccc(F)cc3)nn2C)[C@H](c2cc(F)ccc2F)C1` [Example 120, 1-((3S,4R)-4-(2,5-difluorophenyl)-1-(2-methoxyethyl)pyrrolidin-3-yl)-3-(3-(4-fluoro-phenyl)-1-methyl-1H-pyrazol-5-yl)urea]: under 0.1 µM.

Compound `COCCN1C[C@@H](NC(=O)Nc2c(C)c(OC[C@@H](O)COC)nn2-c2ccccc2)[C@H](c2ccc(F)c(F)c2)C1` [Example 562, 1-((3S,4R)-4-(3,4-difluorophenyl)-1-(2-methoxyethyl)pyrrolidin-3-yl)-3-(3-((S)-2-hydroxy-3-methoxypropoxy)-4-methyl-1-phenyl-1H-pyrazol-5-yl)urea] returned a 50% inhibitory concentration (IC50) of under 0.1 µM.
